For 19 molecules, IC50 results are on record in patent US12358907B2, “Substituted pyrrolidine amides III” (GRÜNENTHAL GMBH, priority 2019, dated 2025).

Like-named read-outs stand apart in the source and are kept apart here.

The target in this experiment is glucocorticoid receptor (GAL4 DBD-GR) (Homo sapiens (Human), UniProt P04150). In words: GR cell-based assays (GRE agonist / GRE antagonist), CHO-Gal4/GR luciferase reporter. The text has this:
Potential selective glucocorticoid receptor modulators of this intervention can be tested for modulation of the activity of the glucocorticoid receptor using cell-based assays. These assays involve a Chinese hamster ovary (CHO) cell line which contains fragments of the glucocorticoid receptor as well as fusion proteins. The glucocorticoid receptor fragments used are capable of binding the ligand (e.g. beclomethasone) to identify molecules that compete for binding with glucocorticoid receptor ligands. In more detail, the glucocorticoid receptor ligand binding domain is fused to the DNA binding domain (DBD) of the transcription factor GAL4 (GAL4 DBD-GR) and is stably integrated into a CHO cell line containing a GAL4-UAS-Luciferase reporter construct. […] After cell lysis the luminescence that is produced by luciferase after addition of the substrate is detected and EC50 or IC50 values can be calcuated. Engagement of molecules which induce gene expression via glucocortocoid receptor binding to the DNA leads to expression of the luciferase gene under the control of the fusion protein GAL4 DBD-GR and therefore to a dose-dependent increase of the luminescence signal. Binding of molecules which repress beclomethasone-induced gene expression of the luciferase gene under the control of the fusion protein GAL4 DBD-GR leads to a dose-dependent reduction of the luminescence signal.
The reporter cell line CHO-Gal4/GR consisted of a chinese hamster ovary (CHO) cell line (Leibniz Institute DSMZ—German Collection of Microorganisms and Cell Cultures GmbH: ACC-110) containing a firefly luciferase gene under the control of the GR ligand binding domain fused to the DNA binding domain (DBD) of GAL4 (GAL4 DBD-GR) stably integrated into CHO cells. This cell line was established by stable transfection of CHO cells with a GAL4-UAS-Luciferase reporter construct. In a subsequent step the ligand binding domain of the GR cloned into pIRES2-EGFP-GAL4 containing the DNA binding domain of GAL4 from pFA-AT2 was transfected. This fusion construct activated firefly luciferase expression under the control of a multimerized GAL4 upstream activation sequence (UAS). The signal of the emitted luminescence was recorded by the FLIPR^TETRA. This allowed for specific detection of ligand-induced activation of the GR and therefore for the identification of compounds with agonistic properties. The GAL4/UAS reporter was premixed with a vector that constitutively expressed Renilla luciferase, which served as an internal positive control for transfection efficiency.
The complete culture medium for the assay was: • DMEM F-12 (1:1) MIXTURE (LONZA cat. No: BE04-687F/U1) 500 mL • 5 mL of 100 mM Sodium Pyruvate (LONZA cat. No: BE12-115E) • 25 mL of 7.5% Sodium Bicarbonate (LONZA cat. No BE17-613E) • 6.5 mL of 1 M Hepes (LONZA cat. No: BE17-737E) • 5 mL of 100× Penicillin/Streptomycin (LONZA cat. No DE17-602E) • 50 mL of Fetal Bovine Serum (Euroclone cat. No ECS 0180L) • 0.25 mL of 10 mg/mL Puromycin (InvivoGen cat.: ant-pr-1) • 0.5 mL of 100 mg/mL Zeocin (InvivoGen cat.: ant-zn-1)
Cryo-preserved CHO-Gal4/GR cells were suspended in complete medium and 5000 cells/25 μl/well were seeded into the wells of 384-well polystyrene assay plates (Thermo Scientific, cat. #4332) and cultured at 37° C., 5% CO2 and 95% humidity. After 24 hours growth medium was carefully removed and replaced by 30 μl Opti-MEM (GIBCO, cat. #31985062) as assay buffer. To test the compounds an 8-point half-log compound dilution curve was generated in 100% DMSO starting from a 2 mM stock and compounds were then diluted 1:50 in Opti-MEM. 10 μl of compounds were then added to the wells containing 30 μl Opti-MEM resulting in a final assay concentration range from 10 μM to 0.003 μM in 0.5% DMSO. Compounds were tested at 8 concentrations in quadruplicate data points. […] Finally, cells were lysed with 20 μl of Triton/Luciferin solution and the signal of the emitted luminescence was recorded at the FLIPR^TETRA for 2 minutes. […]
(In a reporter assay the amount or activity of a reporter protein is the signal.)

Sequence of glucocorticoid receptor (GAL4 DBD-GR) (P04150 524-758): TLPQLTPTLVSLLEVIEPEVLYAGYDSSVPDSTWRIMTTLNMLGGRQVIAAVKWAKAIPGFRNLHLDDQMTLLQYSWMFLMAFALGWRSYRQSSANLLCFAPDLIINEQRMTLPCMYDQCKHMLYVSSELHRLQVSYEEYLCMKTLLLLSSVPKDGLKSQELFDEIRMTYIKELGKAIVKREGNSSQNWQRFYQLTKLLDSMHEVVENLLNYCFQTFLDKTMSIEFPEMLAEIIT

For orientation: IC50 means the midpoint of a concentration-inhibition curve. With `COc1ccc([C@@H]2[C@@H](NC(=O)c3scnc3C)[C@H](C)C(=O)N2c2ccc3c(cnn3-c3ccc(F)cc3)c2)cc1` (racemic) [Example 82, N-[rac-(2R,3S,4S)-1-[1-(4-Fluorophenyl)-1H-indazol-5-yl]-2-(4-methoxyphenyl)-4-methyl-5-oxo-pyrrolidin-3-yl]-4-methyl-thiazole-5-carboxylic acid amide], the IC50 (read-out: IC50 or EC50) was 100 to 1000 nM.

As for `O=C(N[C@H]1C(CCc2ccccc2)C(=O)N(c2ccc3c(cnn3-c3ccc(F)cc3)c2)[C@@H]1c1ccccc1)C1CC1` (single isomer, unassigned) [Example 127], the half-inhibitory concentration (IC50) (read-out: IC50 or EC50) is 100 to 1000 nM.

As for `Cc1ncoc1C(=O)N[C@H]1[C@H](c2ccccc2)N(c2ccc3c(cnn3-c3ccc(F)cc3)c2)C(=O)C1(C)C` [Example 45b, N-((2S,3R)-1-(1-(4-fluorophenyl)-1H-indazol-5-yl)-4,4-dimethyl-5-oxo-2-phenylpyrrolidin-3-yl)-4-methyloxazole-5-carboxamide], the IC50 (read-out: IC50 or EC50) was 100 to 1000 nM.

`CC1(C)C(=O)N(c2ccc3c(cnn3-c3ccc(F)cc3)c2)[C@H](c2ccccc2)[C@H]1NC(=O)c1ncccn1` [Example 43a, N-((2R,3S)-1-(1-(4-fluorophenyl)-1H-indazol-5-yl)-4,4-dimethyl-5-oxo-2-phenylpyrrolidin-3-yl)pyrimidine-2-carboxamide] came in with an IC50 (CHO-Gal4/GR reporter cells, agonist mode (EC50) or antagonist mode against beclometasone (IC50), 6 hour incubation) of under 100 nM.

For `C[C@@H]1C(=O)N(c2ccc3c(cnn3-c3ccc(F)cc3)c2)[C@H](c2ccccc2)[C@H]1NS(C)(=O)=O` (racemic) [Example 61, N-[rac-(2R,3S,4S)-1-[1-(4-Fluorophenyl)-1H-indazol-5-yl]-4-methyl-5-oxo-2-phenyl-pyrrolidin-3-yl]-methanesulfonic acid amide], for the setting “read-out: IC50 or EC50”, the IC50 lay in the range of 100 to 1000 nM.

Regarding `C[C@H]1C(=O)N(c2ccc3c(cnn3-c3ccc(F)cc3)c2)[C@H](c2ccccc2Cl)[C@H]1NC(=O)c1ncccn1` (racemic) [Example 88, N-[rac-(2R,3S,4R)-2-(2-Chlorophenyl)-1-[1-(4-fluorophenyl)-1H-indazol-5-yl]-4-methyl-5-oxo-pyrrolidin-3-yl]-pyrimidine-2-carboxylic acid amide], the IC50 (read-out: IC50 or EC50) was under 100 nM.

For `CC[C@@H]1[C@@H](NC(=O)c2ccn(C)n2)[C@H](Cc2ccccc2)C(=O)N1c1ccc2c(cnn2-c2ccc(F)cc2)c1` (racemic) [Example 104, N-[rac-(2R,3S,4S)-4-Benzyl-2-ethyl-1-[1-(4-fluorophenyl)-1H-indazol-5-yl]-5-oxo-pyrrolidin-3-yl]-1-methyl-1H-pyrazole-3-carboxylic acid amide], the IC50 (read-out: IC50 or EC50) was 1000 to 15000 nM.

As to `C[C@@H]1C(=O)N(c2ccc3c(cnn3-c3ccc(F)cc3)c2)[C@H](c2ccc(Cl)s2)[C@H]1NC(=O)C1CC1` (racemic) [Example 108, N-[rac-(2S,3S,4S)-2-(5-Chloro-thiophen-2-yl)-1-[1-(4-fluorophenyl)-1H-indazol-5-yl]-4-methyl-5-oxo-pyrrolidin-3-yl]-cyclopropanecarboxylic acid amide], the IC50 (read-out: IC50 or EC50) was under 100 nM.

Consider `O=C(N[C@@H]1[C@@H](c2ccccc2)N(c2cnc3c(cnn3-c3ccc(F)cc3)c2)C(=O)C12CC2)C1CC1` (racemic) [Example 31, N-[rac-((6R,7S)-5-(1-(4-fluorophenyl)-1H-pyrazolo[3,4-b]pyridin-5-yl)-4-oxo-6-phenyl-5-azaspiro[2.4]heptan-7-yl)]cyclopropanecarboxamide], for which the IC50 (read-out: IC50 or EC50) fell in the range of 100 to 1000 nM.

`C[C@@H]1C(=O)N(c2ccc3c(cnn3-c3ccc(F)cc3)c2)[C@H](c2ccc(Cl)s2)[C@H]1NC(=O)C(C)(F)F` (racemic) [Example 123, N-[rac-(2S,3S,4S)-2-(5-Chloro-thiophen-2-yl)-1-[1-(4-fluorophenyl)-1H-indazol-5-yl]-4-methyl-5-oxo-pyrrolidin-3-yl]-2,2-difluoro-propionamide]: the IC50 (read-out: IC50 or EC50) is under 100 nM.

As for `CC[C@@H]1[C@@H](NC(=O)c2ncccn2)[C@H](Cc2ccccc2)C(=O)N1c1ccc2c(cnn2-c2ccc(F)cc2)c1` (racemic) [Example 90, N-[rac-(2R,3S,4S)-4-Benzyl-2-ethyl-1-[1-(4-fluorophenyl)-1H-indazol-5-yl]-5-oxo-pyrrolidin-3-yl]-pyrimidine-2-carboxylic acid amide], for the setting “read-out: IC50 or EC50”, the IC50 is 1000 to 15000 nM.

As for `CC1(C)C(=O)N(c2ccc3c(cnn3-c3ccc(F)cc3)c2)[C@@H](c2ccccc2)[C@@H]1NS(C)(=O)=O` [Example 34b, N-((2S,3R)-1-(1-(4-fluorophenyl)-1H-indazol-5-yl)-4,4-dimethyl-5-oxo-2-phenylpyrrolidin-3-yl)methanesulfonamide], under “read-out: IC50 or EC50”, the IC50 fell in the range of 100 to 1000 nM.

Take `C[C@@H]1C(=O)N(c2ccc3c(cnn3-c3ccc(F)cc3)c2)[C@H](c2ccn(C)n2)[C@H]1NC(=O)C(C)(F)F` (racemic) [Example 120, 2,2-Difluoro-N-[rac-(2S,3S,4S)-1-[1-(4-fluorophenyl)-1H-indazol-5-yl]-4-methyl-2-(1-methyl-1H-pyrazol-3-yl)-5-oxo-pyrrolidin-3-yl]-propionamide]: the IC50 (read-out: IC50 or EC50) lay in the range of 1000 to 15000 nM.

Consider `CC[C@@H]1[C@@H](NC(=O)C2CC2)[C@@](F)(Cc2ccccc2)C(=O)N1c1ccc2c(cnn2-c2ccc(F)cc2)c1` (racemic) [Example 137, N-(rac-(2R,3R,4S)-4-benzyl-2-ethyl-4-fluoro-1-(1-(4-fluorophenyl)-1H-indazol-5-yl)-5-oxopyrrolidin-3-yl)cyclopropanecarboxamide], for which the IC50 (read-out: IC50 or EC50) is under 100 nM.

On to `COc1ccc([C@@H]2[C@@H](NC(=O)c3cccnc3)[C@H](C)C(=O)N2c2ccc3c(cnn3-c3ccc(F)cc3)c2)cc1` (racemic) [Example 84, N-[rac-(2R,3S,4S)-1-[1-(4-Fluorophenyl)-1H-indazol-5-yl]-2-(4-methoxyphenyl)-4-methyl-5-oxo-pyrrolidin-3-yl]-pyridine-3-carboxylic acid amide], for which the 50% inhibitory concentration (IC50) (read-out: IC50 or EC50) was in the range of 100 to 1000 nM.

`CC1(C)C(=O)N(c2ccc3c(cnn3-c3ccc(F)cc3)c2)[C@@H](c2ccccc2)[C@@H]1NC(=O)c1cccnc1` [Example 42b, N-((2S,3R)-1-(1-(4-fluorophenyl)-1H-indazol-5-yl)-4,4-dimethyl-5-oxo-2-phenylpyrrolidin-3-yl)nicotinamide]: the IC50 (read-out: IC50 or EC50) was in the range of 100 to 1000 nM.

On to `Cn1cc(C(=O)N[C@H]2[C@H](c3ccccc3)N(c3ccc4c(cnn4-c4ccc(F)cc4)c3)C(=O)C2(C)C)cn1` [Example 41b, N-((2S,3R)-1-(1-(4-fluorophenyl)-1H-indazol-5-yl)-4,4-dimethyl-5-oxo-2-phenylpyrrolidin-3-yl)-1-methyl-1H-pyrazole-4-carboxamide], for which the IC50 (read-out: IC50 or EC50) lay within 1000 to 15000 nM.

Turning to `C[C@@]1(c2ccccc2)[C@@H](NC(=O)C2CC2)CC(=O)N1c1ccc2c(cnn2-c2ccc(F)cc2)c1` (racemic) [Example 101, N-[rac-(2R,3S)-1-[1-(4-Fluorophenyl)-1H-indazol-5-yl]-2-methyl-5-oxo-2-phenyl-pyrrolidin-3-yl]-cyclopropanecarboxylic acid amide], the IC50 (read-out: IC50 or EC50) was in the range of 100 to 1000 nM.

`C[C@@H]1C(=O)N(c2ccc3c(cnn3-c3ccc(F)cc3)c2)[C@H](c2ccccc2)[C@H]1NC(=O)c1ccn(C)n1` (racemic) [Example 64, N-[rac-(2R,3S,4S)-1-[1-(4-Fluorophenyl)-1H-indazol-5-yl]-4-methyl-5-oxo-2-phenyl-pyrrolidin-3-yl]-1-methyl-1H-pyrazole-3-carboxylic acid amide]: under “read-out: IC50 or EC50”, the IC50 is under 100 nM.
